These are literature values, as cited in patent publication US7939518B2, “Method of treating post-surgical acute pain” (Aaipharma Inc., priority 2008, dated 2011).

This data set relates to cyclo-oxygenase.

In the case of `O=C(O)Cc1ccccc1Nc1c(Cl)cccc1Cl` [Diclofenac], the “Concentrations at which cyclo-oxygenase is inhibited” value is on record as “micromolar concentrations”.
